Test [1] concerns the target T1, Muscarinic acetylcholine receptor M2 (Homo sapiens, UniProt P08172).
T1 sequence (P08172 whole entry): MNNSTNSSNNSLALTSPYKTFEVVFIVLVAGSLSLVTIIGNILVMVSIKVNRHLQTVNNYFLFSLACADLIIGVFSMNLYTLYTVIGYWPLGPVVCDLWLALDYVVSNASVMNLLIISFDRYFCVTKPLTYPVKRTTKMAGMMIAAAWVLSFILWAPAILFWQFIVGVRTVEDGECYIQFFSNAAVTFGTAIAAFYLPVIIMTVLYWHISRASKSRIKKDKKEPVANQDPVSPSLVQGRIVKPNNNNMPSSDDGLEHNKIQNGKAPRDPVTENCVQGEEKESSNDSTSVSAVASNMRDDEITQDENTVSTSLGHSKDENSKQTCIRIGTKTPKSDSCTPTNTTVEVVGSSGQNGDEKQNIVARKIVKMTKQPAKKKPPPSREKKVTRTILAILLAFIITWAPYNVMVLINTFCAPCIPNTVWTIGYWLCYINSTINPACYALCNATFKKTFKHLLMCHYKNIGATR
Nature of the test: Binding affinity towards muscarinic m2 receptor.

For test [2], the system named is Glutamate NMDA receptor. Nature of the test: Binding affinity towards PCP (1-(1-phenylcyclohexyl)piperidine) receptor. It is filed as protein-complex assay.
A short description of test [3]: Ratio between the Ki values of m1 and sigma-1 receptors.
Test [4] concerns the target T2, Muscarinic acetylcholine receptor M1 (Homo sapiens, UniProt P11229).
T2 sequence (P11229 whole entry): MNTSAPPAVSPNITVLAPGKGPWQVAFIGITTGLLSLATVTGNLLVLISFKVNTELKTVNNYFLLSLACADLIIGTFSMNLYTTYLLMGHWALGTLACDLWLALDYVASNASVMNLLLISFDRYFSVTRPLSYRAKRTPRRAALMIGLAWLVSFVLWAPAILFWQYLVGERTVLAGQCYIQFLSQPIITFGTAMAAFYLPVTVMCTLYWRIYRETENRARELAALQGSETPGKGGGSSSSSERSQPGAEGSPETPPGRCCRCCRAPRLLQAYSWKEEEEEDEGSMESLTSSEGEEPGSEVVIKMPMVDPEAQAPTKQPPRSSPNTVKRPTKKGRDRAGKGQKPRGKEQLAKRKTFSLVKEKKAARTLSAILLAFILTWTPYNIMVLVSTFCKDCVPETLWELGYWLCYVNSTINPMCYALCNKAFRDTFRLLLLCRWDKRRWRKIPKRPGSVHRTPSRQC
In words: Binding affinity towards muscarinic m1 receptor.

Test [5] deals with Sigma 2 receptor. In words: Tested for its binding affinity towards sigma-2 site in rat brain using [3H]DTG as radioligand. The format is tissue-based.
Test [6] deals with Sigma non-opioid intracellular receptor 1 (Rattus norvegicus) (UniProt Q9R0C9). In words: Ratio between the Ki values of sigma-2 and sigma-1 receptors.
Chain of Sigma non-opioid intracellular receptor 1 (Rattus norvegicus) (Q9R0C9 whole entry): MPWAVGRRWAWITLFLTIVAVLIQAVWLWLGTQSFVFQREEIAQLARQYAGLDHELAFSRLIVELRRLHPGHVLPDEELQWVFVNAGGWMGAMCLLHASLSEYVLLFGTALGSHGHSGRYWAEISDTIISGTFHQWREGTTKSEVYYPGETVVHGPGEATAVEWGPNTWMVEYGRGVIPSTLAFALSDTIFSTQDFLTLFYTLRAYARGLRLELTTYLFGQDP
Test [7] concerns the target T3, Sigma non-opioid intracellular receptor 1 (Rattus norvegicus, UniProt Q9R0C9). Nature of the test: Tested for its binding affinity towards sigma-1 site in rat brain using E3H1-(+)-SKF 10047 as radioligand in rat brain. It is filed as tissue-based.
Test [8] addresses T3, Sigma non-opioid intracellular receptor 1. Nature of the test: Tested for its binding affinity towards sigma-1 site using E3H1-(+)-SKF 10047 as radioligand in rat brain. It is filed as tissue-based.
The target of test [9] is Sigma 2 receptor. Nature of the test: Tested for its binding affinity towards sigma-2 site using [3H]-DTG as radioligand.
The target of test [10] is T3, Sigma non-opioid intracellular receptor 1. In words: Tested for its binding affinity towards sigma-1 site in rat brain, using [3H]-(+)-SKF- 10047 as radioligand. It is filed as tissue-based.
The target is the same in test [11]. In words: Tested for its binding affinity towards sigma-1 site in rat brain, using [3H]DTG as radioligand. It is filed as tissue-based.

Our source for the Ki and Ratio values is ChEMBL document CHEMBL1127585, “Novel 1-phenylcycloalkanecarboxylic acid derivatives are potent and selective sigma 1 ligands” (J Med Chem, 1994).

The term Ki denotes a dissociation constant, usually derived from enzyme kinetics or from competition with a known ligand.

T3 sequence (Q9R0C9 whole entry): as above

In the case of `CCN(CC)CCOCCOC(=O)C(C)c1ccccc1` (stereo unspecified), the Ki in [1] was greater than 10 µM; in [2] it was “Not Active”; in [4], greater than 10 µM; in test [5], 3.11 µM; in [7] it was 0.04 µM. For the same compound, the Ratio is greater than 250 in [3] and 78 in test [6].

As to `CCN(CC)CCOCCOC(=O)C1(c2ccc(Cl)cc2)CCCC1`, the Ki in [1] is 0.097 µM; in test [2] it was “Not Active”; in test [4] it was 0.075 µM; in test [5], 0.648 µM; in test [7], 0.024 µM. The Ratio in [3] came out at 3.1; in test [6], 27.

`CCN(CC)CCOCNC(=O)C1(c2ccc(Cl)c(Cl)c2)CCCCC1`: the Ki in [1] was 0.5 µM; in test [2], “Not Active”; in test [4], 0.581 µM; in [5], 0.527 µM; in [7], 0.027 µM. Besides, the Ratio was 22 in test [3] and 20 in test [6].

Regarding `CCN(CC)CCOCCOCC1(c2ccccc2)CCCC1`, the Ki is 0.844 µM in test [1]; “Not Active” in [2]; 0.91 µM in test [4]; 0.463 µM in test [5]; 0.027 µM in test [7]. The Ratio in [3] was found to be 34; in test [6], 17.

For the compound `C=CCN1CCC2c3cc(O)ccc3CC1C2C` (stereo unspecified), the Ki result in test [2] was “Not Active”; in [8] it was 0.067 µM; in test [9] it was 0.044 µM.

With `CCN(CC)CCOCCOC(=O)C1(c2ccccc2)CCCCC1`, the Ki was 0.145 µM in test [1]; “Not Active” in [2]; 0.135 µM in test [4]; 0.78 µM in test [5]; 0.034 µM in [7]. Also, the Ratio was 4 in [3] and 23 in [6].

As to `CCN(CC)CCOCCOC(=O)C1(c2ccccc2)CCCC1` [CARBETAPENTANE], the Ki in [1] is 0.167 µM; in test [2] it was “Not Active”; in test [4], 0.076 µM.

Turning to `CCN(CC)CCOCCNC(=O)C1(c2ccccc2)CCCC1`, the Ki in test [1] is 4.9 µM; in [2], “Not Active”; in [4], greater than 10 µM; in test [5] it was 2.84 µM; in test [7], 0.215 µM. Besides, the results for the Ratio in [3] and in test [6] were greater than 46 and 13, respectively.

As for `CCN(CC)CCOCCN(C)CC1(c2ccccc2)CCCC1`, the Ki in test [1] was 1.57 µM; in [2] it was “Not Active”; in test [4] it was 0.843 µM; in test [5], 1.1 µM; in test [7], 0.034 µM. The Ratio amounted to 25 in test [3] and 32 in test [6].

For `CCN(CC)CCOCCOC(=O)C1(c2ccc(OC)cc2)CCCC1`, the Ki in test [1] worked out at 0.692 µM; in test [4] it was 1.06 µM; in test [5], 1.5 µM; in test [7] it was 0.059 µM. Also, the Ratio in test [3] stood at 18; in test [6] it was 25.

Take `O=C(OCCN1CCOCC1)C1(c2ccccc2)CCCCC1`: the affinity in test [10], expressed as Ki, was 0.044 µM.

For the compound `Cc1ccccc1NC(=N)Nc1ccccc1C` [DITOLYLGUANIDINE], the Ki entry in test [2] is on record as “Not Active”.

`O=C(NCOCCN1CCOCC1)C1(c2ccc(Cl)c(Cl)c2)CCCCC1`: the Ki was greater than 10 µM in [1]; “Not Active” in test [2]; greater than 10 µM in [4]; 1.64 µM in test [5]; 0.032 µM in test [7]. For the same compound, the Ratio in test [3] is greater than 310; in test [6], 51.

As to `CCN(CC)CCOCCNCC1(c2ccccc2)CCCC1`, the Ki was 2.27 µM in [1]; “Not Active” in test [2]; 1.7 µM in test [4]; 1.1 µM in test [5]; 0.884 µM in test [7]. In addition, the Ratio in test [3] is 1.9; in test [6] it was 1.2.

Consider `O=C(OCOCCN1CCCC1)C1(c2ccc(Cl)c(Cl)c2)CCCCC1`, for which the Ki is 0.074 µM in test [1]; “Not Active” in test [2]; 0.063 µM in [4]; 0.688 µM in [5]; 0.032 µM in [7]. Moreover, the figures for the Ratio in test [3] and in test [6] were 2 and 22, respectively.

In the case of `CCN(CC)CCOCCOC(=O)C1(c2ccccc2)CC1`, the Ki was greater than 10 µM in [1]; “Not Active” in test [2]; greater than 10 µM in [4]; 2.91 µM in test [5]; 0.045 µM in [7]. Also, the Ratio is greater than 220 in [3] and 65 in [6].

Turning to `CCN(CC)CCOCOC(=O)C1(c2ccc(Cl)c(Cl)c2)CCCCC1`, the Ki in [1] was 0.022 µM; in test [2], “Not Active”; in test [4], 0.02 µM; in [5], 0.667 µM; in [7], 0.022 µM. Further, the results for the Ratio in test [3] and in test [6] were 0.9 and 30, respectively.

Consider `O=C(OCOCCN1CCOCC1)C1(c2ccc(Cl)c(Cl)c2)CCCCC1`, for which the Ki in [1] was 1.19 µM; in test [2], “Not Active”; in test [4], 3.11 µM; in test [5], 0.981 µM; in [7] it was 0.039 µM. Also, the Ratio came to 80 in [3] and 25 in test [6].

Turning to `c1ccc(CCCCCNCCCCc2ccccc2)cc1`, the Ki in [11] amounted to 0.002 µM.
